This is an account of results in article PMC6208443 (Nature Communications, 2018).

Holding throughout (type): binding, Arabidopsis thaliana
What all share (conditions): result in words

For one test, the system named is AGDP1. The test can be described thus: Peptide affinity purification and mass spectrometry, AGDP1. The procedure:
(§1) To extract the nuclear proteins for peptide affinity purification, 1 g of wild-type Arabidopsis flowers was harvested and ground in liquid nitrogen. […] The filtrates were centrifuged at 2000 g for 15 min at 4 °C to precipitate the nuclei. Nuclear pellets were washed two times with 1 ml of Honda buffer and then were resuspended in 600 μl of Nuclei Lysis Buffer (50 mM Tris-HCl pH 8.0, 150 mM NaCl, 1% NP40, 0.5 mM DTT, 1 mM PMSF, Roche protease inhibitor cocktail). After sonication, nuclei extracts were centrifuged at 20,000 g for 10 min at 4 °C. The supernatant was incubated with 2 μg of biotinylated histone peptides and Streptavidin Magnetic Beads (Thermo Scientific, 88816) for 3 h with rotation at 4 °C. […] After incubation, beads were washed three times with wash buffer 1 (320 mM NaCl, 50 mM Tris-HCl pH 8.0, 0.5% NP40), and three times with wash buffer 2 (150 mM NaCl, 50 mM Tris-HCl pH 8.0).
(§2) For LC-MS/MS analysis, IP beads with captured proteins were lysed in 12 mM sodium deoxycholate (SDC)-sodium lauroyl sarcosinate (SLS): 100 mM Tris-HCl (pH 8.5), 12 mM SDC, and 12 mM SLS. Proteins were reduced and alkylated with 10 mM tris-(2-carboxyethyl) phosphine and 40 mM chloroacetamide at 95 °C for 5 min. The supernatant containing reduced and alkylated proteins was transferred into a new Eppendorf tube and diluted fivefold with 50 mM triethylammonium hydrogen carbonate buffer and digested with 500 ng trypsin (Sigma) overnight. The SDC and SLS were removed by adding 100% acetyl acetate in a ratio 1:1 (vol/vol) sample to acetyl acetate volume ratio. Samples were acidified with 10% trifluoroacetic acid to pH ~3, and desalted by a custom-made stage tip with a styrene divinyl benzene (SDB-XC) membrane (3 M). The dried peptides were resuspended in 30 μL of 0.3% formic acid (FA) with 3% acetonitrile (ACN), quantified by BCA assay (Thermo Fisher Scientific), and injected into an Easy-nLC 1000 (Thermo Fisher Scientific). Peptides were separated on a 45 cm in-house packed column (360 μm OD × 75 μm ID) containing C18 resin (2.2 μm, 100 Å, Michrom Bioresources) with a 30 cm column heater (Analytical Sales and Services) set at 60 °C. The mobile phase buffer consisted of 0.1% FA in ultra-pure water (buffer A) with an eluting buffer of 0.1% FA in 80% ACN (buffer B) run over a linear 65 min gradient of 5%-30% buffer B at a flow rate of 250 nL/min. The Easy-nLC 1000 was coupled online with a Velos Pro LTQ-Orbitrap mass spectrometer (Thermo Fisher Scientific). The mass spectrometer was operated in the data-dependent mode in which a full MS scan (from m/z 350–1500 with the resolution of 30,000 at 400 m/z) was followed by the 10 most intense ions being subjected to collision-induced dissociation (CID) fragmentation. […]

A further test has as its system EDM2. In words: Peptide affinity purification and mass spectrometry, EDM2. Here is the method: as §1, §2
For a further test, the system named is CMT2. In words: Peptide affinity purification and mass spectrometry, CMT2. Here is the method:
as §1
as §2, with “[…] Search” for “The mass spectrometer”, “performed with full tryptic digestion and allowed a maximum of two missed cleavages on” for “operated in”, “peptides analyzed from” for “data-dependent mode in which a full MS scan (from m/z 350–1500 with”, “sequence database.” for “resolution of 30,000 at 400 m/z) was followed by the 10 most intense ions being subjected to collision-induced dissociation (CID) fragmentation.”

The test system of a further test is CMT3. In words: Peptide affinity purification and mass spectrometry, CMT3. The procedure: as §1
as §2, with “[…] Search” for “The mass spectrometer”, “performed with full tryptic digestion and allowed a maximum of two missed cleavages on” for “operated in”, “peptides analyzed from” for “data-dependent mode in which a full MS scan (from m/z 350–1500 with”, “sequence database.” for “resolution of 30,000 at 400 m/z) was followed by the 10 most intense ions being subjected to collision-induced dissociation (CID) fragmentation.”

For “H3(1-21): synthesized biotinylated H3(1-21) peptide, EMD Millipore”, the “identification from pull-down samples” value with AGDP1 is listed as “not from the H3 pull-down samples”. Besides, the “presence in pull-down products” value in the test on EDM2, in the test on CMT2 and in the test with CMT3 was “not in H3 pull-down products” in each case.
For “H3(1-21)K9me3: synthesized biotinylated H3(1-21)K9me3 peptide, EMD Millipore”, in the test with AGDP1, the “identification from pull-down samples” value is “identified”. The “presence in pull-down products” value with EDM2, with CMT2 and with CMT3 was “present” in each case.
On to “H3(1-21)K9me2: synthesized biotinylated H3(1-21)K9me2 peptide, EMD Millipore”, for which the “identification from pull-down samples” value with AGDP1 is reported as “identified”. Also, the “presence in pull-down products” value in the test on EDM2, in the test on CMT2 and in the test on CMT3 was “present” each time.
On to “H3(1-21)K9me1: synthesized biotinylated H3(1-21)K9me1 peptide, EMD Millipore”, for which the “identification from pull-down samples” value with AGDP1 is recorded as “identified”. The “presence in pull-down products” value in the test with EDM2, in the test with CMT2 and with CMT3 was “present” throughout.
